Test results reported in patent US20250064762A1, “A SUBSTITUTED AROMATIC DICARBONIC ACID AMIDE AS AN INHIBITOR OF THE FERROPTOSIS SUPPRESSOR PROTEIN-1 (FSP1)” (JULIUS-MAXIMILIANS-UNIVERSITÄT WÜRZBURG, priority 2021, published 2025).
Entries after “also recorded” stand apart in the source; their conditions may differ.

Legend:
[1] = system: IHH, AML12, RAW264.7; test: FIN56 toxicity in non-transformed hepatocytes and a monocyte/macrophage cell line; type: cell-based; details: CPBA 100 μM, iFSP1 10 μM; 16 h
Method: Cell culture media and supplements were from Thermo Fisher Scientific, unless specified otherwise. Mouse embryonic fibroblasts (MEFs) were generated from Pgp-wildtype (Pgp^fl/fl) or heterozygous Pgp-inactivated mouse embryos (Pgp^fl/D34N) as described (Segerer et al., 2016). […]
Cells were seeded onto 96-well plates (5,000 cells per well), and treated with serial dilutions of ferroptosis-inducing compounds (erastin, BSO, RSL3, FIN56) or cytotoxic drugs (staurosporine, nocodazole, tunicamycin, paclitaxel, etoposide, menadione, rotenone, FCCP, carboplatin) in the absence or presence of CPBA or iFSP1 (100 μM or 10 μM, respectively; unless stated otherwise) or the DMSO solvent control. Ferroptotic cell death was evaluated by incubating in the absence or presence of liproxstatin-1 (100 nM), ferrostatin-1 (200 nM), or deferoxamine (100 μM). Cell viability was assessed after 16 h using AquaBluer as an indicator of viable cells according to the manufacturer's recommendations (MultiTarget Pharmaceuticals, LLC). Fluorescence (excitation, 540 nm; emission, 590 nm) was analyzed on a Clariostar microplater reader. […]

[2] = system: HT1080 cells; test: FIN56-induced cell death with or without DGAT1/2 inhibitors; type: cell-based, human; details: CPBA versus CPBA+iDGAT1/2
Method: (§1) Cells were seeded onto 96-well plates (5,000 cells per well), and treated with serial dilutions of ferroptosis-inducing compounds (erastin, BSO, RSL3, FIN56) or cytotoxic drugs (staurosporine, nocodazole, tunicamycin, paclitaxel, etoposide, menadione, rotenone, FCCP, carboplatin) in the absence or presence of CPBA or iFSP1 (100 μM or 10 μM, respectively; unless stated otherwise) or the DMSO solvent control. Ferroptotic cell death was evaluated by incubating in the absence or presence of liproxstatin-1 (100 nM), ferrostatin-1 (200 nM), or deferoxamine (100 μM). Cell viability was assessed after 16 h using AquaBluer as an indicator of viable cells according to the manufacturer's recommendations (MultiTarget Pharmaceuticals, LLC). Fluorescence (excitation, 540 nm; emission, 590 nm) was analyzed on a Clariostar microplater reader.
The diglyceride acyltransferase isoforms 1 and 2 (DGAT1, DGAT2) are required to catalyze the formation of triglycerides from diacylglycerol and acyl-CoA.

[3] = system: HT1080 cells, mouse embryonic fibroblasts (MEFs), Du145 and PC3; test: Cell viability (AquaBluer): ferroptosis inducers (FINs) with or without CPBA; type: cell-based, human; details: 16 h
Method: as §1
HT1080 cells, mouse embryonic fibroblasts (MEFs, non-transformed, non-immortalized) and human prostate carcinoma cell lines Du145 and PC3 were incubated with serial dilutions of ferroptosis inducers (FINs) erastin, BSO, RSL3 or FIN56 in the absence or presence of CPBA and/or the ferroptosis inhibitor liproxstatin-1 (HT1080, Du145, PC3: 200 μM CPBA, MEF: 100 μM CPBA; lip-1:100 nM), and cell viability was analyzed after 16 h using Aquabluer. […]
AUC values (AUC FIN+CPBA/AUC FIN+ctrl) were calculated as described above.

| Structure (SMILES) | toxicity of FIN56 in non-transformed cell lines on addition of the compound [1] | influence of lipid droplets on sensitization to FIN56-induced cell death [2] | effect on FIN-induced ferroptosis / cell viability ([3]; FINs erastin, BSO, RSL3 or FIN56, 200 μM CPBA (MEF: 100 μM)) | concentration dependence of ferroptosis-sensitization ([3]; HT1080 and PC3 cells, serial dilutions of FINs±CPBA) |
| --- | --- | --- | --- | --- |
| Cc1ccc(-c2c(C#N)c(N)n3c(nc4ccccc43)c2C#N)cc1 [iFSP1, reference compound] | not markedly increased by the addition of CPBA or iFSP1 | – | – | – |
| O=C(Nc1ccccc1C(=O)O)c1ccc(Oc2ccc(C(=O)Nc3ccccc3C(=O)O)cc2)cc1 [CPBA, 2-[[4-[4-[(2-carboxyphenyl)carbamoyl]phenoxy]benzoyl]amino]-benzoic acid] | – | the absence or presence of lipid droplets did not influence the CPBA-mediated sensitization of HT1080 cells to FIN56-induced cell death | increases the negative effect of FINs on cell viability; also recorded: strongly increases FIN-induced ferroptosis in all cell lines | ferroptosis-sensitization by CPBA is concentration-dependent |
